Experiment [1] concerns the target [MCL-1]-[compound of formula (I)]-[CRBN/DDB1] complex (Homo sapiens, UniProt Q07820+Q96SW2). As to the kind of experiment: AlphaLISA dose response ternary complex formation assay. Format: binding. To be noted: read-out: AlphaLISA dose response Average pEC50 by molecule (converted). On the procedure:
The effect of the bifunctional compounds of the invention on the formation of a ternary complex composed of [MCL-1]-[compound of formula (I)]-[CRBN/DDB1] was investigated with two methods: AlphaLISA dose response assay or HTRF ternary complex assay.
Two types of protein solution were prepared: • 40 nM biotinylated hMCL-1, 40 μg/ml AlphaScreen Streptavidin-coated Donor Beads in PBS buffer with 0.1% Tween-20 and 1 mM DTT, • 200 nM 6×His-CRBN/Strep-DDB1, 40 μg/ml AlphaLISA Anti-6×His Acceptor beads in PBS buffer with 0.1% Tween-20 and 1 mM DTT.
The prepared solutions were incubated at room temperature for 45 min and then the solution containing the donor beads was mixed with the solution containing the acceptor beads.
The tested compounds were dispensed onto a white 384-well AlphaPlate 384 SW. DMSO was backfilled to all wells, resulting in a final DMSO content of 2%. Wells containing only DMSO served as background. Next, 10 μl of solution with donor and acceptor beads was added to the wells.
The plate was sealed with transparent film and shaken using a VibroTurbulator for 60 see at room temperature, level 3. The plate was then spun down shortly (10 s, 1000 rcf, room temperature) and incubated at 25° C. for 30 min.
The read-out was performed with PerkinElmer Enspire Multimode Plate Reader (method for AlphaLISA 384-well low volume, Filterset: λexc=680 nm, λem=615 nm).
The results were analyzed as follows: • 1) an average of luminescence for background signal was calculated and used as a negative control; • 2) average of the maximum measured luminescence for 233 was calculated and used as an internal positive control; • 3) raw luminescence values were normalized against positive and negative controls; • 4) concentration points above the hook point were excluded; • 5) EC50 and pEC50 values were determined.
A general note: Alpha assays give light when donor and acceptor beads are brought close together.

In the next experiment the test system is ARH-77 cells. Put plainly: Cell viability assay (CellTiter-Glo), ARH-77. To be noted: Homo sapiens, ARH-77, 24 hours incubation, 1% FBS, read-out: Average pIC50 by molecule ARH-77 (converted). It is filed as cell-based. The source says:
(§1) The effect of various compounds of the invention on the viability of OPM-2, MV-4-11 and ARH-77 cell lines was investigated, using the CTG protocol described below.
(§2) OPM-2 and MV-4-11 cell lines are derived from multiple myeloma and acute myeloid leukaemia, respectively. Both cell lines are described in the literature as MCL-1 dependent lines, as opposed to lymphoblast-like ARH-77 cell line, which is described as independent of MCL-1 (Tron A E et al. Nat Commun. 2018; 9: 5341; Caenepeel S et al. Cancer Discov. 2018 December; 8(12):1582-1597).
(§3) Cells (OPM-2, MV-4-11 or ARH-77) were seeded on […] in a growth medium with FBS reduced to 1%. Next, compound stocks were pre-diluted in DMSO and added directly to the cells growth medium (final DMSO concentration: 0.5%). Compound concentrations used in this assay: 1/3 dilutions starting at 30 uM (9 to 12 points).
(§4) After 24 hours of incubation, cell viability was evaluated using CellTiter-Glo Luminescent Cell Viability Assay (Promega, cat #G7572). Luminescence signal was measured using a CLARIOstar Plus Multi-Mode Microplate Reader (574-590 nm).
(§5) Results were normalized to DMSO control.
On the technique in general: Cellular ATP, detected with luciferase, serves as a proxy for viable cell number.

Another experiment deals with MV-4-11 cells. Put plainly: Cell viability assay (CellTiter-Glo), MV-4-11. It is filed as cell-based. The following applies: Homo sapiens, MV4-11, 24 hours incubation, 1% FBS, read-out: Average pIC50 by molecule MV-4-11 (converted).
Description: as §1, §2, §3, §4, §5

Where only a bound is given, the exact number is not on record here.

Chain of [MCL-1]-[compound of formula (I)]-[CRBN/DDB1] complex (Q07820 whole entry): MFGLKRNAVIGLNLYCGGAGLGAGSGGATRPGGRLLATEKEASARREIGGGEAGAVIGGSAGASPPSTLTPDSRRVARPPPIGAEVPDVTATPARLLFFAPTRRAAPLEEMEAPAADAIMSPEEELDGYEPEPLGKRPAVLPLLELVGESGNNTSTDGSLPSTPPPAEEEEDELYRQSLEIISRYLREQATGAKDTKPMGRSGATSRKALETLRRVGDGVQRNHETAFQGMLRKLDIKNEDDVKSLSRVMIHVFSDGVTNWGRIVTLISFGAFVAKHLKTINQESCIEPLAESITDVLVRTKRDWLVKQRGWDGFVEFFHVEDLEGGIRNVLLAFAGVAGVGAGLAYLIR
Chain of [MCL-1]-[compound of formula (I)]-[CRBN/DDB1] complex (Q96SW2 whole entry): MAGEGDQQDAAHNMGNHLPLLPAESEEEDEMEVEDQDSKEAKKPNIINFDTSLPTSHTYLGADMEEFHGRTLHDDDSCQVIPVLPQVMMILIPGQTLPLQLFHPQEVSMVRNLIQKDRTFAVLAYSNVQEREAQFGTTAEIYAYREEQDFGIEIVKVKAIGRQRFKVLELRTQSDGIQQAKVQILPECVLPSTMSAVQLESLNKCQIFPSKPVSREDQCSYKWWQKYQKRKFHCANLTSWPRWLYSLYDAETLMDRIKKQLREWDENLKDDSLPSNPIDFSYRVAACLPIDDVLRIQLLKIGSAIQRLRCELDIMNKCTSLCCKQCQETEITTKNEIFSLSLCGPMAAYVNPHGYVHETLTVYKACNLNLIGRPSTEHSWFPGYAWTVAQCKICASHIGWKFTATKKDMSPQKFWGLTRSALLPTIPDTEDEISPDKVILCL
Chain of [MCL-1]-[compound of formula (I)]-[CRBN/DDB1] complex (Q16531 whole entry partner): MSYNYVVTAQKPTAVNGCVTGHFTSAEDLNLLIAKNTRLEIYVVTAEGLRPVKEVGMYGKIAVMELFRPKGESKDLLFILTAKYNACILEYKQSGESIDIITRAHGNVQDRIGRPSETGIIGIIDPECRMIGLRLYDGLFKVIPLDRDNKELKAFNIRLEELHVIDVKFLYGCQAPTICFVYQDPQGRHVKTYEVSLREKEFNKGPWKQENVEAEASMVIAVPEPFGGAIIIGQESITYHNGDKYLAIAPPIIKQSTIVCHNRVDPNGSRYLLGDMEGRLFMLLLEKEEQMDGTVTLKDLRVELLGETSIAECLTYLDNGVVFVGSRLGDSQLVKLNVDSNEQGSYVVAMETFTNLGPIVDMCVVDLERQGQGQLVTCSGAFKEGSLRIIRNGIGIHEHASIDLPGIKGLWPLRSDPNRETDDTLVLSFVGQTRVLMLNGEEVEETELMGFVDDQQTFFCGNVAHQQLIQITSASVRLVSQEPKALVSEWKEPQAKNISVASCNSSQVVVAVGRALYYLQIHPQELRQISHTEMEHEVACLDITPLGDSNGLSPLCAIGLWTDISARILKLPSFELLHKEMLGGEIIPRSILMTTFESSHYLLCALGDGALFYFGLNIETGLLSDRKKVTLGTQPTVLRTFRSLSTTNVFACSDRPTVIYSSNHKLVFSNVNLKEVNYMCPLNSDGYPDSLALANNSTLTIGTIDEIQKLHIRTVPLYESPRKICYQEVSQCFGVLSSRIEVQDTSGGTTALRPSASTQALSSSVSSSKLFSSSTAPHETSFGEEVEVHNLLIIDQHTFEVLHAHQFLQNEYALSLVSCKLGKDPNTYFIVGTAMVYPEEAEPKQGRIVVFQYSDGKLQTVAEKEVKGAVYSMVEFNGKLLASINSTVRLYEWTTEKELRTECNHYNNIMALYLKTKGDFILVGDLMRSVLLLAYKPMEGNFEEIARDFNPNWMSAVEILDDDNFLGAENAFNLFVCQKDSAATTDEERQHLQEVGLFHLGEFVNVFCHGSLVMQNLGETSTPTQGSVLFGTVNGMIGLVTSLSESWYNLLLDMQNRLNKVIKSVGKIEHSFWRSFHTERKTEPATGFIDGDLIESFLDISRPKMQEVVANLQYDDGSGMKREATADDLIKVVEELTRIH

For `Cc1nn(C)c(C)c1-c1c(Cl)ccc2c(CCCOc3cccc4cc(F)ccc34)c(C(=O)O)n(CCN3CCN(C(=O)COc4c(Cl)ccc5c4CN(C4CCC(=O)NC4=O)C5=O)CC3)c12` (centres unmarked) [Compound 345, 6-Chloro-1-{2-[4-(2-{[5-chloro-2-(2,6-dioxopiperidin-3-yl)-1-oxo-2,3-dihydro-1H-isoindol-4-yl]oxy}acetyl)piperazin-1-yl]ethyl}-3-{3-[(6-fluoronaphthalen-1-yl)oxy]propyl}-7-(1,3,5-trimethyl-1H-pyrazol-4-yl)-1H-indole-2-carboxylic acid], the EC50 in experiment [1] is less than 0.1 µM. In addition, the IC50 in the experiment with ARH-77 cells is more than 10 µM; in the experiment on MV-4-11 cells it was not above 0.1 µM.

In the case of `Cc1nn(C)c(C)c1-c1c(Cl)ccc2c(CCCOc3cccc4cc(F)ccc34)c(C(=O)O)n(CCN3CCC4CN(C(=O)CNc5cccc6c5C(=O)N(C5CCC(=O)NC5=O)C6=O)CC43)c12` (centres unmarked) [Compound 300, 6-Chloro-1-(2-(5-((2-(2,6-dioxopiperidin-3-yl)-1,3-dioxoisoindolin-4-yl)glycyl)hexahydropyrrolo[3,4-b]pyrrol-1(2H)-yl)ethyl)-3-(3-((6-fluoronaphthalen-1-yl)oxy)propyl)-7-(1,3,5-trimethyl-1H-pyrazol-4-yl)-1H-indole-2-carboxylic acid], the EC50 in experiment [1] was less than 0.01 µM. Also, the values for the IC50 with ARH-77 cells and in the experiment on MV-4-11 cells were more than 3.16 µM and not above 0.1 µM, respectively.

In the case of `Cc1nn(C)c(C)c1-c1c(Cl)ccc2c(CCCOc3cccc4cc(F)ccc34)c(C(=O)O)n(CCN3CCC(CN4CCN(c5cccc6c5C(=O)N(C5CCC(=O)NC5=O)C6=O)CC4)CC3)c12` (centres unmarked) [Compound 332, 6-Chloro-1-(2-(4-((4-(2-(2,6-dioxopiperidin-3-yl)-1,3-dioxoisoindolin-4-yl)piperazin-1-yl)methyl)piperidin-1-yl)ethyl)-3-(3-((6-fluoronaphthalen-1-yl)oxy)propyl)-7-(1,3,5-trimethyl-1H-pyrazol-4-yl)-1H-indole-2-carboxylic acid], in experiment [1], the EC50 was less than 0.1 µM. Besides, the IC50 with ARH-77 cells is more than 31.6 µM; with MV-4-11 cells it was not above 1 µM.

Regarding `Cc1nn(C)c(C)c1-c1c(Cl)ccc2c(CCCOc3cccc4ccccc34)c(C(=O)O)n(CCN3CCN(C(=O)COc4cccc5c4CN(C4CCC(=O)NC4=O)C5=O)C4CC43)c12` (centres unmarked) [Compound 222, 6-chloro-1-{2-[5-(2-{[2-(2,6-dioxopiperidin-3-yl)-1-oxo-2,3-dihydro-1H-isoindol-4-yl]oxy}acetyl)-2,5-diazabicyclo[4.1.0]heptan-2-yl]ethyl}-3-[3-(naphthalen-1-yloxy)propyl]-7-(1,3,5-trimethyl-1H-pyrazol-4-yl)-1H-indole-2-carboxylic acid], the EC50 in experiment [1] is less than 0.1 µM. In addition, the IC50 in the experiment with ARH-77 cells was more than 10 µM; in the experiment with MV-4-11 cells it was not above 0.316 µM.

For the compound `Cc1nn(C)c(C)c1-c1c(Cl)ccc2c(CCCOc3cccc4cc(F)ccc34)c(C(=O)O)n(CCCCNC(=O)CNc3cccc4c3C(=O)N(C3CCC(=O)NC3=O)C4=O)c12` (centres unmarked) [Compound 325, 6-Chloro-1-[4-(2-{[2-(2,6-dioxopiperidin-3-yl)-1,3-dioxo-2,3-dihydro-1H-isoindol-4-yl]amino}acetamido)butyl]-3-{3-[(6-fluoronaphthalen-1-yl)oxy]propyl}-7-(1,3,5-trimethyl-1H-pyrazol-4-yl)-1H-indole-2-carboxylic acid], the EC50 in experiment [1] was less than 0.01 µM. Besides, the IC50 in the experiment with ARH-77 cells was more than 10 µM; in the experiment with MV-4-11 cells it was not above 0.1 µM.

As to `Cc1nn(C)c(C)c1-c1c(Cl)ccc2c(CCCOc3cccc4cc(F)ccc34)c(C(=O)O)n(CCN3CCN(C(=O)[C@H](C)Oc4cccc5c4C(=O)N([C@@H]4CCC(=O)NC4=O)C5=O)CC3)c12` (single isomer, unassigned) [Compound 320], the IC50 is more than 10 µM in the experiment with ARH-77 cells and not above 0.1 µM in the experiment on MV-4-11 cells.

Take `Cc1cc(OCCCc2c(C(=O)O)n(CCN3CCN(C(=O)CCOCCOCCOCCOCCOCCOCCNc4cccc5c4C(=O)N(C4CCC(=O)NC4=O)C5=O)CC3)c3c(-c4c(C)nn(C)c4C)c(Cl)ccc23)cc(C)c1Cl` (centres unmarked) [Compound 203, 6-chloro-3-[3-(4-chloro-3,5-dimethylphenoxy)propyl]-1-{2-(4-(1-{(2-(2,6-dioxopiperidin-3-yl)-1,3-dioxo-2,3-dihydro-1H-isoindol-4-yl]amino}-3,6,9,12,15,18-hexaoxahenicosanoyl)piperazin-1-yl]ethyl}-7-(1,3,5-trimethyl-1H-pyrazol-4-yl)-1H-indole-2-carboxylic acid]: in experiment [1], the EC50 was less than 0.1 µM. In addition, in the experiment on MV-4-11 cells, the IC50 was not above 1 µM.

For `Cc1nc2cccc(NCC(=O)N3CCN(CCn4c(C(=O)O)c(CCCOc5cccc6cc(F)ccc56)c5ccc(Cl)c(-c6c(C)nn(C)c6C)c54)CC3)c2cc1C1CCC(=O)NC1=O` (centres unmarked) [Compound 287, 6-Chloro-1-{2-[4-(2-{[3-(2,6-dioxopiperidin-3-yl)-2-methylquinolin-5-yl]amino}acetyl)piperazin-1-yl]ethyl}-3-{3-[(6-fluoronaphthalen-1-yl)oxy]propyl}-7-(1,3,5-trimethyl-1H-pyrazol-4-yl)-1H-indole-2-carboxylic acid], the figures for the IC50 in the experiment with ARH-77 cells and in the experiment on MV-4-11 cells were more than 3.16 µM and not above 1 µM, respectively.

As for `Cc1cc(OCCCc2c(C(=O)O)n(C)c3c(-c4c(C)nn(CCCOCCOCCNc5cccc6c5C(=O)N(C5CCC(=O)NC5=O)C6=O)c4C)cccc23)cc(C)c1Cl` (centres unmarked) [Compound 227, 3-(3-(4-chloro-3,5-dimethylphenoxy)propyl)-7-(1-(3-(2-(2-((2-(2,6-dioxopiperidin-3-yl)-1,3-dioxoisoindolin-4-yl)amino)ethoxy)ethoxy)propyl)-3,5-dimethyl-1H-pyrazol-4-yl)-1-methyl-1H-indole-2-carboxylic acid], the EC50 in experiment [1] was less than 1 µM.

Regarding `Cc1nn(C)c(COc2ccc(N3CCN(S(=O)(=O)N(C)C)CC3)cc2)c1-c1cccc2c(CCCOc3cccc4ccccc34)c(C(=O)O)n(CCN3CCN(C(=O)COc4ccc5c(c4)C(=O)N(C4CCC(=O)NC4=O)C5=O)CC3)c12` (centres unmarked) [Compound 248, 7-(5-((4-(4-(N,N-dimethylsulfamoyl)piperazin-1-yl)phenoxy)methyl)-1,3-dimethyl-1H-pyrazol-4-yl)-1-(2-(4-(2-((2-(2,6-dioxopiperidin-3-yl)-1,3-dioxoisoindolin-5-yl)oxy)acetyl)piperazin-1-yl)ethyl)-3-(3-(naphthalen-1-yloxy)propyl)-1H-indole-2-carboxylic acid], the EC50 in experiment [1] is less than 1 µM.

With `Cc1cc(OCCCc2c(C(=O)O)n(CCN3CCN(C(=O)CNc4cccc5c4C(=O)N(C4CCC(=O)NC4=O)C5=O)CC3)c3c(-c4c(C)nn(C)c4C)cccc23)cc(C)c1Cl` (centres unmarked) [Compound 233, 3-(3-(4-chloro-3,5-dimethylphenoxy)propyl)-1-(2-(4-((2-(2,6-dioxopiperidin-3-yl)-1,3-dioxoisoindolin-4-yl)glycyl)piperazin-1-yl)ethyl)-7-(1,3,5-trimethyl-1H-pyrazol-4-yl)-1H-indole-2-carboxylic acid], the EC50 in experiment [1] was less than 1 µM.

`Cc1nn(C)c(C)c1-c1c(Cl)ccc2c(CCCOc3cccc4cc(F)ccc34)c(C(=O)O)n(CCN3CCN(C(=O)COc4cccc5c4CN([C@@H]4CCC(=O)NC4=O)C5=O)CC3)c12` [Compound 297, (R)-6-Chloro-1-(2-(4-(2-((2-(2,6-dioxopiperidin-3-yl)-1-oxoisoindolin-4-yl)oxy)acetyl)piperazin-1-yl)ethyl)-3-(3-((6-fluoronaphthalen-1-yl)oxy)propyl)-7-(1,3,5-trimethyl-1H-pyrazol-4-yl)-1H-indole-2-carboxylic acid]: the IC50 in the experiment on ARH-77 cells is more than 10 µM; with MV-4-11 cells, not above 0.1 µM.

These data come from patent US20240294499A1, “TARGETED PROTEIN DEGRADATION USING BIFUNCTIONAL COMPOUNDS THAT BIND UBIQUITIN LIGASE AND TARGET MCL-1 PROTEIN” (Captor Therapeutics S.A., priority 2021, published 2024).
